Data from patent US20190256474A1, “N-PHENYL-2-(3-PHENYL-6-OXO-1,6-DIHYDROPYRIDAZIN-1-YL)ACETAMIDE DERIVATIVES FOR TREATING CYSTIC FIBROSIS” (Proteostasis Therapeutics, Inc., priority 2016, published 2019).

Biological target: T1, ΔF508-CFTR (Homo sapiens, UniProt P13569, DEL508-508)
T1 construct: Primary lung epithelial cells homozygous for the Cystic Fibrosis-causing ΔF508 mutation were differentiated; endogenous in cells; host or cells: primary human bronchial epithelial cells (hBE), ΔF508/ΔF508
Test: hBE equivalent current (Ieq) assay, CFTR activity
Assay type: cell-based
Settings: relative to a CFTR amplifier at 3 μM, ΔF508 homozygous hBE, 24 h treatment; for Activity 3 μM: compound at 3 μM; for Activity 10 μM: compound at 10 μM
Experimental: Primary lung epithelial cells homozygous for the Cystic Fibrosis-causing ΔF508 mutation were differentiated for a minimum of 4 weeks in an air-liquid interface on Costar 24 well HTS filter plates prior to the equivalent current (Ieq) measurements. Cells were apically mucus-washed for 30 minutes 24 h prior to treatment with compounds. The basolateral media was removed and replaced with media containing the compound of interest diluted to its final concentration from DMSO stocks. Treated cells were incubated at 37° C. and 5% CO2 for 24 hours. At the end of the treatment period, the media was changed to the Ieq experimental solution for 2 hours before the experiment and plates are maintained in a CO2-free incubator during this period. The plates containing the cells were then placed in pre-warmed heating blocks at 36° C.±0.5 for 15 minutes before measurements are taken. The transepithelial voltage (VT) and conductance (GT) were measured using a custom 24 channel current clamp (TECC-24) with 24 well electrode manifold. The Ieq assay measurements were made following additions with standardized time periods:
1. The baseline VT and GT values were measured for approximately 20 minutes.
2. Benzamil was added to block ENaC for 15 minutes.
3. Forskolin plus VX-770 were added to maximally activate ΔF508-CFTR for 27 minutes.
4. Bumetanide was added to inhibit the NaK2Cl cotransporter and shut-off secretion of chloride.
The activity data captured was the area under the curve (AUC) for the traces of the equivalent chloride current. The AUC was collected from the time of the forskolin/VX-770 addition until the inhibition by bumetanide addition. Correction in response to compound treatment was scored as the increase in the AUC for compound-treated samples over that of vehicle-treated samples.
The results are shown below in Table 1. + indicates activity <150% of a CFTR amplifier with compound at concentration shown and amplifier at 3 μM; ++ indicates activity >150% of a CFTR amplifier with compound at concentration shown and amplifier at 3 μM.

T1 sequence (P13569 with tags, fused parts or gaps DEL508-508): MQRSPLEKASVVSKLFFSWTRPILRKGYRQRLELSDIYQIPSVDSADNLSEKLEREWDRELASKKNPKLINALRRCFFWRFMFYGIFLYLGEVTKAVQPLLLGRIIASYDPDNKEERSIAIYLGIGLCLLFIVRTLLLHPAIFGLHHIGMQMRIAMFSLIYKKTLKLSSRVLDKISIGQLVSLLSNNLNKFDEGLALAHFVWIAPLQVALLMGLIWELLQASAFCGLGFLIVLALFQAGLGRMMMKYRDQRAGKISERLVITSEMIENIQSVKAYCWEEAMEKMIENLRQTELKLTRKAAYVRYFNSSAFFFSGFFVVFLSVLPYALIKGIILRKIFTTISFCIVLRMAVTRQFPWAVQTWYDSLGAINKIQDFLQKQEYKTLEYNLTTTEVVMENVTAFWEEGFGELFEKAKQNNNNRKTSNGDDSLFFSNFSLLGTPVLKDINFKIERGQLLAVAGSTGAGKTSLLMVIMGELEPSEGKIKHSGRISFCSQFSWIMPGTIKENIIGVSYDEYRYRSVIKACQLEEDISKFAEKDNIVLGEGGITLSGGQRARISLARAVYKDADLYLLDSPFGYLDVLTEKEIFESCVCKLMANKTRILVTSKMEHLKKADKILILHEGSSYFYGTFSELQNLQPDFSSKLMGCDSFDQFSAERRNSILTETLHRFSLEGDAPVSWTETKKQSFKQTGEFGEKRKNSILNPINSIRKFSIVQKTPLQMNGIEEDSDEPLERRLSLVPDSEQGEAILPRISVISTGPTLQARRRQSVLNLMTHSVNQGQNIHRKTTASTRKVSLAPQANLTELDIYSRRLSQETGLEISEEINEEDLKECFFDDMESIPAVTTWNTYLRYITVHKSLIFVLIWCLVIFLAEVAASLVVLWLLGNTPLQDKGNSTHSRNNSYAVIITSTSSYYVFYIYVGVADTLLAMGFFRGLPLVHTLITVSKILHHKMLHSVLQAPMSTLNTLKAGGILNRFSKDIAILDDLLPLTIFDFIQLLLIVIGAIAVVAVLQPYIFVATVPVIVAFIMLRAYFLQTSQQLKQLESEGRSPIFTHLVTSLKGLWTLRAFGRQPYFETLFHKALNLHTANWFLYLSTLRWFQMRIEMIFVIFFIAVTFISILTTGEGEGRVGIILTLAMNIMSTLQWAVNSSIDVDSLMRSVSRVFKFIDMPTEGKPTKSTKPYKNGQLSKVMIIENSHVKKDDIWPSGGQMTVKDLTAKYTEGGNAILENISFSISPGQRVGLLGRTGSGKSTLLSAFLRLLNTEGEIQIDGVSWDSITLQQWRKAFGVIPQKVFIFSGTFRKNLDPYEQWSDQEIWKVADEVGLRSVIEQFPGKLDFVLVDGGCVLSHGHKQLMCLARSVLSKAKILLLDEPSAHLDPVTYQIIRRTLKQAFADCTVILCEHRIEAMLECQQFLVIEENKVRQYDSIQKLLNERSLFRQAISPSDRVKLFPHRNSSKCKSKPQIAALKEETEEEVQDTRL

For COc1cccc(-c2ccc(=O)n(C(C)C(=O)Nc3ccccc3C(C)(C)C)n2)c1 (stereo not drawn) [Compound 9, N-(2-tert-Butylphenyl)-2-[3-(3-methoxyphenyl)-6-oxo-1,6-dihydropyridazin-1-yl]propanamide], the “Activity 3 μM” value was “+ (activity <150% of a CFTR amplifier with compound at concentration shown and amplifier at 3 μM)” and the “Activity 10 μM” value was “+ (activity <150% of a CFTR amplifier with compound at concentration shown and amplifier at 3 μM)”.

COc1ccc(F)c(-c2ccc(=O)n(C(C)C(=O)Nc3ccc(C(F)(F)F)cc3)n2)c1 (stereo not drawn) [Compound 52, 2-[3-(2-Fluoro-5-methoxyphenyl)-6-oxo-1,6-dihydropyridazin-1-yl]-N-[4-(trifluoromethyl)phenyl]propanamide] was tested, and the “Activity 3 μM” value was “++ (activity >150% of a CFTR amplifier with compound at concentration shown and amplifier at 3 μM)” and the “Activity 10 μM” value was “++ (activity >150% of a CFTR amplifier with compound at concentration shown and amplifier at 3 μM)”.

With CC(C(=O)Nc1ccc(C(F)(F)F)cc1)n1nc(-c2ccccc2C#N)ccc1=O (stereo not drawn) [Compound 35, 2-[3-(2-Cyanophenyl)-6-oxo-1,6-dihydropyridazin-1-yl]-N-[4-(trifluoromethyl)phenyl]propanamide] the “Activity 3 μM” value was “+ (activity <150% of a CFTR amplifier with compound at concentration shown and amplifier at 3 μM)” and the “Activity 10 μM” value was “+ (activity <150% of a CFTR amplifier with compound at concentration shown and amplifier at 3 μM)”.

In the case of COc1cccc(-c2ccc(=O)n(C(C(=O)Nc3ccc(C(F)(F)F)cc3)C3CC3)n2)c1 (stereo not drawn) [Compound 39, 2-Cyclopropyl-2-(3-(3-methoxyphenyl)-6-oxopyridazin-1(6H)-yl)-N-(4-(trifluoromethyl)phenyl)acetamide], the “Activity 3 μM” value is reported as “++ (activity >150% of a CFTR amplifier with compound at concentration shown and amplifier at 3 μM)” and the “Activity 10 μM” value is reported as “++ (activity >150% of a CFTR amplifier with compound at concentration shown and amplifier at 3 μM)”.

In the case of COc1cccc(-c2ccc(=O)n(C(Cc3ccccc3)C(=O)Nc3ccc(C(F)(F)F)cc3)n2)c1 (stereo not drawn) [Compound 53, 2-(3-(3-Methoxyphenyl)-6-oxopyridazin-1(6H)-yl)-3-phenyl-N-(4-(trifluoromethyl)phenyl)propanamide], the “Activity 10 μM” value is reported as “+ (activity <150% of a CFTR amplifier with compound at concentration shown and amplifier at 3 μM)”.

For COc1cccc(-c2ccc(=O)n(C(C)C(=O)Nc3cc(C(F)(F)F)cc(C(F)(F)F)c3)n2)c1 (stereo not drawn) [Compound 41, N-(3,5-Bis(trifluoromethyl)phenyl)-2-(3-(3-methoxyphenyl)-6-oxopyridazin-1(6H)-yl)propanamide], the “Activity 3 μM” value was “++ (activity >150% of a CFTR amplifier with compound at concentration shown and amplifier at 3 μM)” and the “Activity 10 μM” value was “++ (activity >150% of a CFTR amplifier with compound at concentration shown and amplifier at 3 μM)”.

With COc1cccc(-c2nn(C(C)C(=O)Nc3cc(F)cc(F)c3)c(=O)cc2-c2ccccc2)c1 (stereo not drawn) [Compound 24, N-(3,5-Difluorophenyl)-2-[3-(3-methoxyphenyl)-6-oxo-4-phenyl-1,6-dihydropyridazin-1-yl]propanamide] the “Activity 3 μM” value was “++ (activity >150% of a CFTR amplifier with compound at concentration shown and amplifier at 3 μM)” and the “Activity 10 μM” value was “++ (activity >150% of a CFTR amplifier with compound at concentration shown and amplifier at 3 μM)”.

For COc1cccc(-c2ccc(=O)n(C(C)C(=O)Nc3cc(Cl)cc(Cl)c3)n2)c1 (stereo not drawn) [Compound 46, N-(3,5-Dichlorophenyl)-2-(3-(3-methoxyphenyl)-6-oxopyridazin-1(6H)-yl)propanamide], the “Activity 3 μM” value was “++ (activity >150% of a CFTR amplifier with compound at concentration shown and amplifier at 3 μM)” and the “Activity 10 μM” value was “++ (activity >150% of a CFTR amplifier with compound at concentration shown and amplifier at 3 μM)”.

For COc1cccc(-c2ccc(=O)n(C(C)C(=O)Nc3ccc(C(F)(F)F)c(C(F)(F)F)c3)n2)c1 (stereo not drawn) [Compound 47, N-[3,4-Bis(trifluoromethyl)phenyl]-2-[3-(3-methoxyphenyl)-6-oxo-1,6-dihydropyridazin-1-yl]propanamide], the “Activity 3 μM” value was “++ (activity >150% of a CFTR amplifier with compound at concentration shown and amplifier at 3 μM)” and the “Activity 10 μM” value was “++ (activity >150% of a CFTR amplifier with compound at concentration shown and amplifier at 3 μM)”.

COc1cccc(-c2ccc(=O)n(C(C)C(=O)Nc3cccc(C(C)(C)C)c3)n2)c1 (stereo not drawn) [Compound 10, N-(3-tert-Butylphenyl)-2-[3-(3-methoxyphenyl)-6-oxo-1,6-dihydropyridazin-1-yl]propanamide] was tested, and the “Activity 10 μM” value was “++ (activity >150% of a CFTR amplifier with compound at concentration shown and amplifier at 3 μM)”.

CC(C(=O)Nc1ccc(C(F)(F)F)cc1)n1nc(-c2cccc(C#N)c2)ccc1=O (stereo not drawn) [Compound 36, 2-[3-(3-Cyanophenyl)-6-oxo-1,6-dihydropyridazin-1-yl]-N-[4-(trifluoromethyl)phenyl]propanamide] was tested, and the “Activity 3 μM” value was “++ (activity >150% of a CFTR amplifier with compound at concentration shown and amplifier at 3 μM)” and the “Activity 10 μM” value was “++ (activity >150% of a CFTR amplifier with compound at concentration shown and amplifier at 3 μM)”.

CC(C(=O)Nc1ccc(C(F)(F)F)cc1)n1nc(-c2ccccc2)ccc1=O (stereo not drawn) [Compound 28, 2-(6-oxo-3-phenyl-1,6-dihydropyridazin-1-yl)-N-[4-(trifluoromethyl)phenyl]propanamide] was tested, and the “Activity 3 μM” value was “++ (activity >150% of a CFTR amplifier with compound at concentration shown and amplifier at 3 μM)” and the “Activity 10 μM” value was “++ (activity >150% of a CFTR amplifier with compound at concentration shown and amplifier at 3 μM)”.

In the case of COc1cccc(NC(=O)C(C)n2nc(-c3cccc(OC)c3)ccc2=O)c1 (stereo not drawn) [Compound 6, N-(3-Methoxyphenyl)-2-[3-(3-methoxyphenyl)-6-oxo-1,6-dihydropyridazin-1-yl]propanamide], the “Activity 3 μM” value is reported as “+ (activity <150% of a CFTR amplifier with compound at concentration shown and amplifier at 3 μM)” and the “Activity 10 μM” value is reported as “+ (activity <150% of a CFTR amplifier with compound at concentration shown and amplifier at 3 μM)”.

For CC(C(=O)Nc1ccc(C(F)(F)F)cc1)n1nc(-c2ccc(C(F)(F)F)cc2)ccc1=O (stereo not drawn) [Compound 34, 2-[6-Oxo-3-[4-(trifluoromethyl)phenyl]-1,6-dihydropyridazin-1-yl]-N-[4-(trifluoromethyl)phenyl]propanamide], the “Activity 3 μM” value was “+ (activity <150% of a CFTR amplifier with compound at concentration shown and amplifier at 3 μM)” and the “Activity 10 μM” value was “+ (activity <150% of a CFTR amplifier with compound at concentration shown and amplifier at 3 μM)”.

With COc1cccc(-c2ccc(=O)n(C(C)C(=O)Nc3cccc(C#N)c3)n2)c1 (stereo not drawn) [Compound 45, N-(3-Cyanophenyl)-2-(3-(3-methoxyphenyl)-6-oxopyridazin-1(6H)-yl)propanamide] the “Activity 3 μM” value was “+ (activity <150% of a CFTR amplifier with compound at concentration shown and amplifier at 3 μM)” and the “Activity 10 μM” value was “+ (activity <150% of a CFTR amplifier with compound at concentration shown and amplifier at 3 μM)”.

For COc1cccc(-c2ccc(=O)n(C(C)C(=O)Nc3cccc(C(F)(F)F)c3)n2)c1 (stereo not drawn) [Compound 7, 2-[3-(3-Methoxyphenyl)-6-oxo-1,6-dihydropyridazin-1-yl]-N-[3-(trifluoromethyl)phenyl]propanamide], the “Activity 3 μM” value was “+ (activity <150% of a CFTR amplifier with compound at concentration shown and amplifier at 3 μM)” and the “Activity 10 μM” value was “+ (activity <150% of a CFTR amplifier with compound at concentration shown and amplifier at 3 μM)”.

In the case of COc1cccc(-c2ccc(=O)n(C(C)C(=O)N(C)c3cc(F)cc(F)c3)n2)c1 (stereo not drawn) [Compound 17, N-(3,5-Difluorophenyl)-2-[3-(3-methoxyphenyl)-6-oxo-1,6-dihydropyridazin-1-yl]-N-methylpropanamide], the “Activity 3 μM” value is reported as “+ (activity <150% of a CFTR amplifier with compound at concentration shown and amplifier at 3 μM)” and the “Activity 10 μM” value is reported as “+ (activity <150% of a CFTR amplifier with compound at concentration shown and amplifier at 3 μM)”.

With COc1cccc(-c2cc(-c3ccccc3)c(=O)n(C(C)C(=O)Nc3cc(F)cc(F)c3)n2)c1 (stereo not drawn) [Compound 25, N-(3,5-Difluorophenyl)-2-(3-(3-methoxyphenyl)-6-oxo-5-phenylpyridazin-1(6H)-yl)propanamide] the “Activity 10 μM” value was “+ (activity <150% of a CFTR amplifier with compound at concentration shown and amplifier at 3 μM)”.
